In patent US9539223B2, “Methods for treating bacterial infections” (Neoculi Pty Ltd., priority 2013, dated 2017):
In brackets after ≈: the same amount, converted by molar mass. Several values for one entry are separate records, joined by “and”; a condition that tells them apart may be missing. Equal entries are not always repeated.

Experiments:
S. pneumoniae [1] = assay: MBC, pneumococcal isolates; format: cell-based, Streptococcus pneumoniae; settings: isolate WCH16
Experimental: (§1) [Micro-broth dilutions and 96-well trays are prepared by the following method: 90 μL of 4% LHB: CAMHB is aliquotted into all wells using a multichannel pipette. 90 μl of working antimicrobial stocks were no serial diluted down the tray by a 1:2 dilution. Negative broth controls and dilution control were taken into account when planning the set up of a 96-well tray.] 10 μL of bacterial suspension was then added to the appropriate wells in the 96 well tray. Appropriate positive (no antimicrobial), negative (no antimicrobial or bacteria) and negative dilution (a serial dilution control of antimicrobial and broth) controls were included in each assay. […] The MBC was determined by a 99.95% inhibition of S. pneumoniae, taking into account the dilution factor. MICs and MBCs were determined in quadruplicate and the mode was taken as the representative value. The MIC50, MIC90 and MIC range and MBC50, MBC90 and MBC range were determined according to CLSI standards. The MIC50 and MIC90, or MBC50 and MBC90, are defined by the lowest concentrations which, when all the MICs and MBCs of the isolates are arranged from lowest to highest, inhibited the 50th and 90th percentile of the total amount of isolates, respectively.

S. aureus strain T3-29 = assay: Checkerboard synergy study, S. aureus T3-29; format: cell-based, Staphylococcus aureus
Experimental: (§2) Firstly, the MIC of each antibiotic alone was determined in accordance to CLSI standard guidelines.
(§3) According to the checkerboard guidelines, Synergy (S) was defined as an FICI<0.5. No effect (NE) was defined as 0.5<FICI<4. Antagonism (A) was defined as a 4<FICI.

[2] = system: methicillin-resistant Staphylococcus aureus (MRSA); assay: Minimum inhibitory concentration assay (CLSI), MRSA isolates; format: cell-based; settings: ATCC control strains
Experimental: Minimum inhibitory concentration tests were performed according to CLSI Standards (CLSI 2008). […] The solutions were then serially diluted across the row, leaving 2 columns for positive and negative controls. A bacterial suspension was prepared by adding fresh colonies obtained from an overnight culture on Sheep Blood Agar (SBA) to a 9.1 g/L saline solution. This suspension was adjusted to a concentration of between 4×10^8 and 5×10^8 CFU/mL. Concentration of the suspension was determined by measuring optical density (OD) using a spectrophotometer at a wavelength of 600 nm where the correct concentration was determined to have an optical density of between 1.00 and 1.20. One milliliter of this suspension was added to 9 mL of saline before being added to all wells, excluding the negative control wells, in 10 μL volumes giving a final concentration of between 4×10^5 and 5×10^5 CFU/mL in each well. The tests were then incubated for 24 hours at 37° C. and then assessed both visually and using OD readings from a microplate reader at a wavelength of 600 nm. These tests were performed in duplicate but repeated if discrepancies were observed.
The minimum inhibitory concentration (MIC) was determined to be the lowest concentration of antibiotic that prevented growth of bacteria both visually and using OD readings.

[3] = system: methicillin-resistant and methicillin-susceptible Staphylococcus aureus; assay: MIC by broth microdilution (CLSI), S. aureus clinical isolates; format: cell-based; settings: positive control
Experimental: Microtiter plates containing two-fold dilutions of each antimicrobial agent were inoculated with ˜10^5-CFU/ml of each isolate in a 100-μl final volume. Plates were incubated for 24-h at 37° C. Turbidity (absorbance at OD600) was measured using a Bio-Rad Benchmark Plus microplate spectrophotometer in Microplate Manager® version 5.2.1 (Bio-Rad). Minimum inhibitory concentration (MIC) endpoints were defined as the lowest antimicrobial concentration assessed by the spectrophotometer that inhibited bacterial growth. ATCC 49775 was included in the isolate collection as a control organism using breakpoints defined by the CLSI. The MIC50, MIC90 (concentrations that inhibited growth of the lower 50% and 90% of total organisms, respectively), and MIC range (minimum and maximum) were calculated to profile the antimicrobial susceptibility of the isolate collection.

S. pneumoniae [4] = assay: MIC by micro-broth dilution, pneumococcal isolates; format: cell-based, Streptococcus pneumoniae
Experimental: as §1

[5] = system: Staphylococcus spp. Strain MK1; assay: Checkerboard synergy study, Staphylococcus spp. MK1; format: cell-based; parameters: key to FIC1 (last-but-one column; FIC index of antibiotic + NCL812): FICI: <0.5 synergy, 0.5-4 no effect, >4 antagonism; settings: Staphylococcus spp. Strain MK1
Experimental: as §2, §3

S. aureus ATCC 29213 [6] = assay: MIC assay (CLSI M07-A8) in Mueller Hinton II Broth; format: cell-based, Staphylococcus aureus; settings: S. aureus ATCC 29213, quality control agent
Source text: The MIC assay method followed the procedure described by the Clinical and Laboratory Standards Institute, or CLSI (Clinical and Laboratory Standards Institute). […] The medium employed for the MIC assay was Mueller Hinton II Broth (MHB II—Becton Dickinson, Sparks, Md.; Cat No 212322; Lot 9044411). S. aureus ATCC 29213 served as the quality control strain, and linezolid was utilized as the quality control antibiotic to validate the assay.

S. aureus ATCC 29213 [7] = assay: ATP release assay (CellTiter-Glo); format: cell-based, Staphylococcus aureus; settings: 8-fold the MIC (256 μg/ml), 30 min exposure
Source text: The CellTiter-Glo Luminescent Cell Viability Assay (Promega) was utilized to measure the leakage of ATP from bacteria. […] The negative control received 2% DMSO, which represented the final DMSO concentration in each assay. […] Results were expressed as ATP concentration released to the medium (μM).

## CC1(C)S[C@@H]2[C@H](NC(=O)[C@H](N)c3ccccc3)C(=O)N2[C@H]1C(=O)O [Ampicillin]
S. pneumoniae [1]
  MBC: Autolysis
S. aureus strain T3-29
  Result (interaction of antibiotic with NCL812): NE (No effect (NE) was defined as 0.5<FICI<4)
[2]
  MIC values against CLSI recommendations: within the normal range expected
[3]
  MIC values against CLSI guidelines: within the normal range expected
S. pneumoniae [4]; 20 S. pneumoniae strains
  MIC Range: 0.011 to 0.09 µg/mL
S. pneumoniae [4]; Streptococcus pneumoniae
  MIC: 0.023 µg/mL (≈ 0.0658 µM)
  MIC50: 0.023 µg/mL (≈ 0.0658 µM)
  MIC90: 0.023 µg/mL (≈ 0.0658 µM)
S. pneumoniae [4]; isolate EF3030
  MIC: 0.023
S. pneumoniae [4]; isolate WCH184
  MIC: 0.045

## O=C(N[C@H](CO)[C@H](O)c1ccc([N+](=O)[O-])cc1)C(Cl)Cl [Chloramphenicol, chloramphenicol]
S. aureus strain T3-29
  FIC1 (last-but-one column; FIC index of antibiotic + NCL812): 0.75
  Result (interaction of antibiotic with NCL812): NE (No effect (NE) was defined as 0.5<FICI<4)

## O=C(O)c1cn(C2CC2)c2cc(N3CCNCC3)c(F)cc2c1=O [Ciprofloxacin, ciprofloxacin]
[5]
  Antibiotic MIC Alone: 0.125 µg/mL and 0.25 µg/mL
  FIC1 (last-but-one column; FIC index of antibiotic + NCL812): 0.75 and 0.525 and 0.625 and 0.562
  Result (interaction of antibiotic with NCL812): NE (No effect (NE) was defined as 0.5<FICI<4)

## CC[C@H]1OC(=O)[C@H](C)[C@@H](O[C@H]2C[C@@](C)(OC)[C@@H](O)[C@H](C)O2)[C@H](C)[C@@H](O[C@@H]2O[C@H](C)C[C@H](N(C)C)[C@H]2O)[C@](C)(O)C[C@@H](C)C(=O)[C@H](C)[C@@H](O)[C@]1(C)O [Erythromycin, erythromycin]
S. aureus strain T3-29
  Result (interaction of antibiotic with NCL812): NE (No effect (NE) was defined as 0.5<FICI<4)
S. pneumoniae [4]; Streptococcus pneumoniae
  MIC: 0.00275 µg/mL (≈ 0.00375 µM)

## CC(=O)NC[C@H]1CN(c2ccc(N3CCOCC3)c(F)c2)C(=O)O1 [Linezolid, linezolid]
S. aureus ATCC 29213 [6]
  MIC against CLSI quality control range: within the CLSI-established quality control range

## CC1(C)S[C@@H]2[C@H](NC(=O)Cc3ccccc3)C(=O)N2[C@H]1C(=O)O [Penicillin G, penicillin G]
[5]
  Antibiotic MIC Alone: 0.125 µg/mL and 0.25 µg/mL
  Antibiotic MIC With NCL812: 0.062 µg/mL and 0.031 µg/mL
  FIC1 (last-but-one column; FIC index of antibiotic + NCL812): 1 and 0.625
  Result (interaction of antibiotic with NCL812): NE (No effect (NE) was defined as 0.5<FICI<4)

## Cc1cc(NS(=O)(=O)c2ccc(N)cc2)no1 [Sulfamethoxazole, sulfamethoxazole]
[5]
  Antibiotic MIC Alone: 8 µg/mL
  Antibiotic MIC With NCL812: 4 µg/mL
  FIC1 (last-but-one column; FIC index of antibiotic + NCL812): 0.75 and 1
  FIC1 = MIC of antibiotic in combination with NCL812/MIC of antibiotic alone: 0.5
  Result (interaction of antibiotic with NCL812): NE (No effect (NE) was defined as 0.5<FICI<4)

## CN(C)[C@@H]1C(O)=C(C(N)=O)C(=O)[C@@]2(O)C(O)=C3C(=O)c4c(O)cccc4[C@@](C)(O)[C@H]3C[C@@H]12 [Tetracycline, tetracycline]
S. aureus strain T3-29
  FIC1 (last-but-one column; FIC index of antibiotic + NCL812): 0.75 and 0.62
  Result (interaction of antibiotic with NCL812): NE (No effect (NE) was defined as 0.5<FICI<4)

## gentamicin
[5]
  Antibiotic MIC Alone: 1 µg/mL and 0.5 µg/mL
  Result (interaction of antibiotic with NCL812): NE (No effect (NE) was defined as 0.5<FICI<4)

## polymyxin B [reference compound]
S. aureus ATCC 29213 [7]
  maximal release of ATP: approximately 0.34 μM
